Assay results from article PMC12683216, “Using High‐Throughput Screening to Identify Crosslinking Peptides That Control Cell‐Mediated Matrix Degradation” (Advanced Healthcare Materials, 2025).
Where a SMILES comes first, the peptide text is derived from it. [ ]: non-standard residue; d: D form. βAla = NCCC(=O)O

Columns and labels:
Assay type in all cases: in vitro ADME, human
Conditions in all cases: human, 24 h, LC-MS
[1] = Soluble peptide degradation, Cells condition (LC-MS)
Procedure: (§1) Most in vitro protease activity assays incubate the peptides or proteins of interest with a single protease in a buffered solution. However, the kinetics of protease activity in tissues are complex and highly regulated, and both the activity^[ [37] ^] and substrate specificity^[ [38] ^] of proteases can be modulated through association with other proteins.^[ [39] ^] Most MMP‐substrate peptides are also cleaved by multiple proteases,^[ [5] ^] and within the context of biomaterials, the most important factor is typically how the combined activity of all proteases, rather than the activity of any specific protease, modifies the local microenvironment versus the activity due to any individual enzyme. We synthesized peptides identified in the TAILS proteomic screen that were present on proteins that are known to be secreted or found on the cell membrane, pooled them, and added them either to cell culture media on top of cells, the “Cells” condition, or conditioned media lacking cells, the “Media” condition (Figure 2A). The fraction of peptides remaining after 24 h in each condition was then quantified using LC‐MS. Soluble proteases should be present in both conditions, however, membrane‐type proteases should primarily be found in the samples containing cells and not the conditioned media samples. A key benefit of this approach is that it surveys the total functional proteolytic activity, including the effects of inhibitors and co‐factors, and quantifies the degradation rate of soluble peptides by the complete secretome of different cell types.
(§2) hUVECs (75000 per well) or hMSCs (36000 per well) were seeded into a 48 well plate, and 500 µL media was added to the wells. […] The peptide libraries were dissolved at a stock solution of 10 mM total peptide content. For libraries containing 38 peptides, 95 µL of the stock solution was added to each well; for libraries with 19 peptides, 47.5 µL was added to each well, and media was taken at 0 and 24 h. Add 4 µL of acetic acid to all collected media in the LC‐MS plates and store them in a −80 °C freezer to prevent further proteolytic degradation. From each sample, 10 µL of crude solution was introduced by the LC‐MS through a Thermo Scientific Vanquish LC System (Thermo Fisher Scientific), which outputted to a Thermo Scientific LTQ XL Linear Ion Trap Mass Spectrometer (Thermo Fisher Scientific). The sampled mixture was trapped on a column (ProntoSIL C18 AQ, 120 Å, 3 µm, 2.0 x 50 mm HPLC Column, PN 0502F184PS030, MAC‐MOD Analytical Inc.). The samples were loaded onto the column with a solvent containing acetonitrile/water, 5:95 (v/v) containing 1% acetic acid at a flow rate of 300 µL min^−1 and held for 1 min. The sample was then eluted from the column with a linear gradient of 5–40% Solvent B (1% acetic acid in acetonitrile) at the same flow rate for 5 min. This was followed by a 1 min ramp up to 100% Solvent B, where it was re‐equilibrated with Solvent A (1% acetic acid) to 5% solvent B over the course of 1 min and held there for 2 min. The column temperature was kept at a constant 29 °C, and the mass spectrometer was operated in positive ion mode. Using a Heated ESI, the Source Voltage was set to 4.1 kV, and the capillary temperature was 350 °C. For non‐library degradation studies, 2.5 µL of 10 mM peptide stock solution for each peptide was added.
In the MMP‐14 inhibitor study, the MMP‐14 inhibitor NSC 405 020 (Cayman Chemical Company) was dissolved in DMSO to make a 10 mM stock solution and stored in −20 °C freezer. 0.5 µL MMP‐14 inhibitor stock solution was added to each well to achieve a 10 µM final concentration.
For all degradation studies using soluble peptides, a non‐proteolytically degradable NH2‐βFβAβAβAβAβAβA‐amide (βFβA6) peptide, where βF is β‐phenylalanine and βA is β‐alanine, was added at a 50 µM concentration and used as an internal standard. Peptide degradation ratios were measured by LC‐MS and analyzed by Xcalibur. […]

[2] = Soluble peptide degradation, Media condition (cell-conditioned media, LC-MS)
Procedure: as §1, §2
(§3) To assess the activity of the conditioned media, the media were divided into two equal portions. One portion was used for a standard degradation study, while the other was cultured for an additional 24 h before the PanMMP and KLVADLMASAE were added. After 24 h of incubation, the media were collected for further analysis. To assess the impact of recombinant MMP‐14 on PanMMP and KLVADLMASAE, recombinant MMP‐14 (antibodies.com) was dissolved in the media at a concentration of 0.5 nM. The remaining steps followed the standard degradation study protocol. […]

[3] = as above; remark: listed apart in the source
Procedure: as §1, §2, §3

[4] = hMSCs in culture with fresh media (Cells condition), Figure 2B heatmap, pooled TAILS-derived soluble peptides (Ac-βAla N-terminus, βAla-amide C-terminus) in media on hMSCs (36000 per well, 48 well plate, 500 µL), ratio to βFβA6 internal standard, 24 h / 0 h, N = 5, read-out: Fraction of peptide remaining at 24 hours: hMSC Cells
[5] = hUVECs in culture with fresh media (Cells condition), Figure 2B heatmap, pooled TAILS-derived soluble peptides in media on hUVECs (75000 per well, 48 well plate, 500 µL), ratio to βFβA6 internal standard, 24 h / 0 h, N = 5, read-out: Fraction of peptide remaining at 24 hours: hUVEC Cells
[6] = Figure 2B heatmap, pooled TAILS-derived soluble peptides in 24 h hMSC-conditioned media without cells, ratio to βFβA6 internal standard, 24 h / 0 h, N = 5, read-out: Fraction of peptide remaining at 24 hours: hMSC Media
[7] = Figure 2B heatmap, pooled TAILS-derived soluble peptides in 24 h hUVEC-conditioned media without cells, ratio to βFβA6 internal standard, 24 h / 0 h, N = 5, read-out: Fraction of peptide remaining at 24 hours: hUVEC Media
[8] = hMSCs in culture with fresh media (Cells condition), Figure 3B heatmap, split-and-pool libraries KLVADX1X2ASAE (19 or 38 peptides per library) in media on hMSCs, ratio to βFβA6, N = 2, read-out: Fraction of peptide remaining after 24 hours: hMSC Cells
[9] = hUVECs in culture with fresh media (Cells condition), Figure 3B heatmap, split-and-pool libraries KLVADX1X2ASAE in media on hUVECs, ratio to βFβA6, N = 2, read-out: Fraction of peptide remaining after 24 hours: hUVEC Cells
[10] = hMSC-conditioned media without cells (Media condition), Figure 3B heatmap, split-and-pool libraries KLVADX1X2ASAE in hMSC-conditioned media without cells, ratio to βFβA6, N = 2, read-out: Fraction of peptide remaining after 24 hours: hMSC Media
[11] = hUVEC-conditioned media without cells (Media condition), Figure 3B heatmap, split-and-pool libraries KLVADX1X2ASAE in hUVEC-conditioned media without cells, ratio to βFβA6, N = 2, read-out: Fraction of peptide remaining after 24 hours: hUVEC Media

CC(=O)NCCC(=O)N[C@@H](CCCCN)C(=O)N[C@@H](C)C(=O)N1CCC[C@H]1C(=O)NCC(=O)NCC(=O)N[C@@H](CCCCN)C(=O)N[C@@H](C)C(=O)N[C@@H](C)C(=O)NCC(=O)N1CCC[C@H]1C(=O)N[C@@H](C)C(=O)NCCC(N)=O [KAPGGKAAGPA] (Ac-[βAla]KAPGGKAAGPA[βAla]-NH2)
remaining at 24 h [1, 4]: 78% | remaining at 24 h [1, 5]: 71% | remaining at 24 h [2, 6]: 95% | remaining at 24 h [3, 7]: 88%

CC[C@H](C)[C@H](NC(=O)[C@@H](NC(=O)[C@H](CCSC)NC(=O)[C@@H]1CCCN1C(=O)[C@H](CCCCN)NC(=O)[C@H](CCCCN)NC(=O)CCNC(C)=O)[C@@H](C)O)C(=O)N[C@@H](C)C(=O)N[C@@H](CCCNC(=N)N)C(=O)N[C@@H](CC(C)C)C(=O)N[C@@H](CC(N)=O)C(=O)N[C@@H](C)C(=O)N[C@@H](CCCCN)C(=O)N[C@@H](CCCCN)C(=O)NCCC(N)=O [KKPMTIARLNAKK] (Ac-[βAla]KKPMTIARLNAKK[βAla]-NH2)
remaining at 24 h [1, 4]: 75% | remaining at 24 h [1, 5]: 73% | remaining at 24 h [2, 6]: 94% | remaining at 24 h [3, 7]: 74%

CC(=O)NCCC(=O)N[C@@H](CC(C)C)C(=O)N[C@@H](C)C(=O)N[C@@H](CC(C)C)C(=O)N[C@@H](CCC(=O)O)C(=O)N[C@@H](C)C(=O)N[C@@H](CCCNC(=N)N)C(=O)N[C@H](C(=O)N[C@H](C(=O)N[C@@H](CC(=O)O)C(=O)N[C@@H](CC(C)C)C(=O)NCCC(N)=O)[C@@H](C)O)[C@@H](C)O [LALEARTTDL] (Ac-[βAla]LALEARTTDL[βAla]-NH2)
remaining at 24 h [1, 4]: 68% | remaining at 24 h [1, 5]: 94% | remaining at 24 h [2, 6]: 86% | remaining at 24 h [3, 7]: 104%

CC(=O)NCCC(=O)N[C@@H](CCCCN)C(=O)N[C@@H](CC(C)C)C(=O)N[C@H](C(=O)N[C@@H](C)C(=O)N[C@@H](CC(=O)O)C(=O)N[C@@H](CC(C)C)C(=O)N[C@@H](CC(C)C)C(=O)N[C@@H](C)C(=O)N[C@@H](CO)C(=O)N[C@@H](C)C(=O)N[C@@H](CCC(=O)O)C(=O)NCCC(N)=O)C(C)C [Leu-Leu] (Ac-[βAla]KLVADLLASAE[βAla]-NH2)
remaining at 24 h [1, 8]: 41% | remaining at 24 h [1, 9]: 91% | remaining at 24 h [2, 10]: 73% | remaining at 24 h [3, 11]: 97%

CC(=O)NCCC(=O)N[C@@H](CCCCN)C(=O)N[C@@H](CC(C)C)C(=O)N[C@H](C(=O)N[C@@H](C)C(=O)N[C@@H](CC(=O)O)C(=O)N[C@@H](CC(C)C)C(=O)N[C@@H](Cc1c[nH]c2ccccc12)C(=O)N[C@@H](C)C(=O)N[C@@H](CO)C(=O)N[C@@H](C)C(=O)N[C@@H](CCC(=O)O)C(=O)NCCC(N)=O)C(C)C [Leu-Trp] (Ac-[βAla]KLVADLWASAE[βAla]-NH2)
remaining at 24 h [1, 8]: 37% | remaining at 24 h [1, 9]: 91% | remaining at 24 h [2, 10]: 62% | remaining at 24 h [3, 11]: 98%

CSCC[C@H](NC(=O)[C@H](CC(=O)O)NC(=O)[C@H](C)NC(=O)[C@@H](NC(=O)[C@H](CC(C)C)NC(=O)[C@H](CCCCN)NC(=O)CCNC(C)=O)C(C)C)C(=O)N[C@@H](C)C(=O)N[C@@H](C)C(=O)N[C@@H](CO)C(=O)N[C@@H](C)C(=O)N[C@@H](CCC(=O)O)C(=O)NCCC(N)=O [Met-Ala] (Ac-[βAla]KLVADMAASAE[βAla]-NH2)
remaining at 24 h [1, 8]: 38% | remaining at 24 h [1, 9]: 88% | remaining at 24 h [2, 10]: 61% | remaining at 24 h [3, 11]: 97%

CSCC[C@H](NC(=O)[C@H](CC(=O)O)NC(=O)[C@H](C)NC(=O)[C@@H](NC(=O)[C@H](CC(C)C)NC(=O)[C@H](CCCCN)NC(=O)CCNC(C)=O)C(C)C)C(=O)N[C@@H](Cc1c[nH]cn1)C(=O)N[C@@H](C)C(=O)N[C@@H](CO)C(=O)N[C@@H](C)C(=O)N[C@@H](CCC(=O)O)C(=O)NCCC(N)=O [Met-His] (Ac-[βAla]KLVADMHASAE[βAla]-NH2)
remaining at 24 h [1, 8]: 46% | remaining at 24 h [1, 9]: 90% | remaining at 24 h [2, 10]: 74% | remaining at 24 h [3, 11]: 100%

CC[C@H](C)[C@H](NC(=O)[C@H](Cc1c[nH]cn1)NC(=O)[C@H](CCC(=O)O)NC(=O)[C@@H]1CCCN1C(=O)[C@H](Cc1ccccc1)NC(=O)[C@H](CC(N)=O)NC(=O)CCNC(C)=O)C(=O)N[C@@H](Cc1ccccc1)C(=O)N1CCC[C@H]1C(=O)N[C@@H](C)C(=O)N[C@@H](CC(C)C)C(=O)N[C@@H](C)C(=O)NCCC(N)=O [NFPEHIFPALA] (Ac-[βAla]NFPEHIFPALA[βAla]-NH2)
remaining at 24 h [1, 4]: 73% | remaining at 24 h [2, 6]: 92% | remaining at 24 h [3, 7]: 99%

CC(=O)NCCC(=O)N1CCC[C@H]1C(=O)N1CCC[C@H]1C(=O)N[C@@H](CO)C(=O)N[C@@H](CCCNC(=N)N)C(=O)N[C@@H](Cc1c[nH]cn1)C(=O)N[C@@H](CC(=O)O)C(=O)N[C@H](C(=O)NCC(=O)N[C@H](C(=O)N1CCC[C@H]1C(=O)NCCC(N)=O)[C@@H](C)O)[C@@H](C)O [PPSRHDTGTP] (Ac-[βAla]PPSRHDTGTP[βAla]-NH2)
remaining at 24 h [1, 4]: 100% | remaining at 24 h [1, 5]: 103% | remaining at 24 h [2, 6]: 87% | remaining at 24 h [3, 7]: 104%

CC[C@H](C)[C@H](NC(=O)[C@H](CCCCN)NC(=O)[C@@H](NC(=O)[C@H](CO)NC(=O)[C@H](CO)NC(=O)[C@@H]1CCCN1C(=O)CCNC(C)=O)[C@@H](C)CC)C(=O)N[C@@H](CCCCN)C(=O)N[C@@H](CO)C(=O)N[C@@H](C)C(=O)N[C@@H](CC(=O)O)C(=O)N[C@@H](CCCCN)C(=O)NCCC(N)=O [PSSIKIKSADK] (Ac-[βAla]PSSIKIKSADK[βAla]-NH2)
remaining at 24 h [1, 4]: 81% | remaining at 24 h [1, 5]: 86% | remaining at 24 h [2, 6]: 90% | remaining at 24 h [3, 7]: 93%
